Experimental data: patent publication US11479587B2, “Cationic intrinsically disordered antimicrobial peptides” (priority 2016, dated 2022)
≈ marks a conversion by molar mass, not a printed value. Where “and” joins values, the source holds several entries; their conditions need not be identical. Identical values can stand only once. Non-standard residues stand in square brackets, D forms with d. Residues, ends and D or L forms follow the SMILES beside them. No end group written: not given here. *: point of attachment. Palmitoyl = CCCCCCCCCCCCCCCC(=O)*; Dap = NC[C@H](N)C(=O)O

What was measured:
[1] = tested on: methicillin-resistant S. aureus strain (ATCC 43300); type: cell-based, Staphylococcus aureus; settings: ATCC 43300, 18 h
Procedure: Furthermore, sensitivity of a methicillin-resistant S. aureus strain (ATCC 43300) was investigated for palmitoylated CIDAMPs in a microtiter plate screening model, with incubation in Mueller-Hinton medium at 37° C. for 18 h using resazurin as a marker for cell viability.
A sample of each culture was then diluted 40-fold in fresh broth and incubated at 37° C. for 1.5-3 h. […] All the plates were covered and incubated at 37° C. for 18 h.
(§1) Inhibition of bacterial growth was determined using resazurin as a marker for cell viability. Resazurin was added to each well, at 0.001% final concentration, and plates incubated at 37° C. for 2 h. Fluorescence intensity was measured, using F (top read), ex 560/10 nm, em 590/10 nm, using a Tecan M1000 Pro monochromator plate reader.

[2] = Cytotoxicity (resazurin) assay
Procedure: For the cytotoxicity (resazurin) assay, HEK293 cells were counted manually in a Neubauer haemocytometer and plated at a density of 4000 cells/well into each well of the 384-well plates containing the 25×(2 μl) concentrated compounds. The medium used was Dulbecco's modified eagle medium (DMEM) supplemented with 10% foetal bovine serum (FBS). Cells were incubated together with the compounds for 20 h at 37° C., 5% CO2. To measure cytotoxicity, 5 μl (equals 100 μM final) resazurin was added to each well after incubation, and incubated for further 3 h at 37° C. with 5% CO2.
After final incubation fluorescence intensity was measured as F ex 560/10 nm, em 590/10 nm (F560/590) using a Tecan M1000 Pro monochromator plate reader. […] The concentration dependent percentage cytotoxicity was fitted to a dose response function (using Pipeline Pilot) and CC50 values determined.

Hemolysis assay = type: cell-based; settings: for HC50 at 1 h: human, washed erythrocytes from EDTA-blood, pH 7.4
Procedure: (§2) For the hemolysis assays EDTA-blood was centrifuged at 800×g for 10 min, and the plasma and buffy coat were removed. The erythrocytes were washed three times and resuspended in 5% PBS, pH 7.4. The cells were then incubated with end-over-end rotation for 1 h at 37° C. in the presence of different concentrations of peptides (0, 3, 10, 30, 60 μm). 0.1% Triton X-100 (Sigma-Aldrich) served as positive control. The samples were then centrifuged at 800×g for 10 min.
(§3) The absorbance of hemoglobin release was measured at 540 nm and is expressed as % of Triton X-100-induced hemolysis. These values of triplicates were plotted with Graph Pad Prism 4 as a dose response curve and the CC50 was determined.

C. albicans ATCC 928 = settings: for MIC: ATCC 928, 18 h, pH 7.4; for MIC, C. albicans ATCC 90028: ATCC 928
erythrocytes = experiment: Hemolysis assay; type: cell-based
Procedure: as §2, §3

P. aeruginosa ATCC 10145 = experiment: CFU-assay, P. aeruginosa-cidal activity; type: cell-based, Pseudomonas aeruginosa; settings: pH 5.5, 0.25% glucose
S. aureus ATCC 6538 = experiment: CFU-assay, S. aureus-cidal activity; type: cell-based, Staphylococcus aureus; settings: pH 5.5, 0.25% glucose
Procedure, shortened: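 Bactericidal CFU-assay in nutrient-deficient 10 mM sodium phosphate buffer pH 5.5 with 0.25% glucose, counting surviving colonies across twofold peptide dilutions from 300 μg/ml to 19 ng/ml. Output is minimal bactericidal concentration (e.g. MBC90, MBC100); some peptides also tested at pH 7.0.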

A. baumannii ATCC 19606 = type: cell-based, Acinetobacter baumannii; settings: ATCC 19606, 2 h
Procedure: as §1

[3] = tested on: Burkholderia cepacia ATCC 25416; experiment: CFU-assay, Burkholderia cepacia-cidal activity; type: cell-based
[4] = tested on: Klebsiella pneumoniae ATCC 13883; experiment: CFU-assay, Klebsiella pneumoniae-cidal activity; type: cell-based

| Compound | MIC, S. aureus ATCC 43300 [1] [µg/mL] | CC50 [2] | HC50 (Hemolysis assay) [µg/mL] | MIC (C. albicans ATCC 928) [µg/mL] | hemolytic activity (in words) (erythrocytes) | MIC, C. neoformans ATCC 208821 (C. neoformans) [µg/mL] | other results |
| --- | --- | --- | --- | --- | --- | --- | --- |
| CCCCCCCCCCCCCCCC(=O)NCC(=O)N[C@@H](CCCNC(=N)N)C(=O)N[C@@H](CCCNC(=N)N)C(=O)NCC(=O)NCC(=O)N[C@@H](CCCNC(=N)N)C(=O)NCC(=O)NCC(=O)N[C@@H](CCCNC(=N)N)C(=O)O [Pal-GR9] (HELM PEPTIDE1{[CCCCCCCCCCCCCCCC(=O)[*:2]].G.R.R.G.G.R.G.G.R}$$$$V2.0) | ≥8 | > 32 µg/mL and > 27.4 µM | > 300 | 1 to 32 |  |  | HC50 at 1 h (Hemolysis assay): > 257 µM |
| S-Pal-LCE3C55-75: palmitoylated peptide named among those with low hemolytic activity (SHHRHFRSHQCRRQRSNSCDR; also: S-palmitoylated, Cys not given here; UniProt Q5T5A8 55-75, looked up, fragment) |  |  |  |  | low hemolytic activity |  |  |
| CCCCCCCCCCCCCCCC(=O)NCC(=O)N[C@@H](CCN)C(=O)NCC(=O)N[C@@H](CCN)C(=O)O [Pal-GDab4, Pal-GDabGDab] (HELM PEPTIDE1{[CCCCCCCCCCCCCCCC(=O)[*:2]].G.[Dab].G.[Dab]}$$$$V2.0) | ≥32 | 32 µg/mL (≈ 56.1 µM) |  |  |  | ≥16 | MBC90 (P. aeruginosa ATCC 10145): 2.35 µg/mL (≈ 4.12 µM); MBC100 (P. aeruginosa ATCC 10145): 9.38 µg/mL (≈ 16.4 µM); MBC90 (S. aureus ATCC 6538): 4.7 µg/mL (≈ 8.23 µM); MBC100 (S. aureus ATCC 6538): 18.75 µg/mL (≈ 32.9 µM); CC50 (Hemolysis assay): > 100 µg/mL; MIC, A. baumannii ATCC 19606 (A. baumannii ATCC 19606): ≥32 µg/mL |
| CCCCCCCCCCCCCCCC(=O)NCC(=O)N[C@@H](CCCNC(=N)N)C(=O)N[C@@H](CCCNC(=N)N)C(=O)NCC(=O)NCC(=O)N[C@@H](CCCNC(=N)N)C(=O)O [Pal-GR6, Pal-GRRGGR] (HELM PEPTIDE1{[CCCCCCCCCCCCCCCC(=O)[*:2]].G.R.R.G.G.R}$$$$V2.0) | ≥16 | > 32 µg/mL | > 300 |  |  | ≥16 |  |
| CCCCCCCCCCCCCCCC(=O)NCC(=O)N[C@@H](CCCNC(=N)N)C(=O)NCC(=O)N[C@@H](CCCNC(=N)N)C(=O)O [Pal-GR4, Pal-GRGR] (HELM PEPTIDE1{[CCCCCCCCCCCCCCCC(=O)[*:2]].G.R.G.R}$$$$V2.0) | ≥8 | > 32 µg/mL | 100 | 1 to 32 |  | ≥8 | MIC, C. albicans ATCC 90028 (C. albicans ATCC 928): ≥8 µg/mL |
| CCCCCCCCCCCCCCCC(=O)NCC(=O)N[C@@H](CN)C(=O)NCC(=O)N[C@@H](CN)C(=O)O [Pal-GDap4, Pal-GDapGDap] (Palmitoyl-G[Dap]G[Dap]-OH) | ≥8 | > 32 µg/mL | > 300 | 1 to 32 | low hemolytic activity | ≥1 | MIC, C. albicans ATCC 90028 (C. albicans ATCC 928): ≥8 µg/mL |
| CCCCCCCCCCCCCCCC(=O)NCC(=O)N[C@@H](CCCN)C(=O)N[C@@H](CCCN)C(=O)NCC(=O)NCC(=O)N[C@@H](CCCN)C(=O)NCC(=O)NCC(=O)N[C@@H](CCCN)C(=O)NCC(=O)N[C@@H](CCCN)C(=O)NCC(=O)N[C@@H](CCCN)C(=O)O [Pal-Orn-GR13, Pal-GOOGGOGGOGOGO] (HELM PEPTIDE1{[CCCCCCCCCCCCCCCC(=O)[*:2]].G.[Orn].[Orn].G.G.[Orn].G.G.[Orn].G.[Orn].G.[Orn]}$$$$V2.0) |  | > 32 µg/mL | > 300 |  | low hemolytic activity |  |  |
| Pal-GRRGSGLGRSSSRGGRGSGSGR (Palmitoyl-GRRGSGLGRSSSRGGRGSGSGR) [Pal-HR 1-18 4H-4R] |  |  |  |  |  |  | MBC90 ([3]; pH 7.3, 0.25% glucose): 75 µg/mL; MBC100 ([3]; pH 7.3, 0.25% glucose): 300 µg/mL; MBC90 ([3]; pH 7.3, 1% TSB): 75 µg/mL; MBC100 ([3]; pH 7.3, 1% TSB): 150 µg/mL |
| SHHRHFRSHQCRR [LCE3C55 67] | ≥32 |  |  |  |  | ≥8 |  |
| Pal-SHHRPRLFHRRRH (Palmitoyl-SHHRPRLFHRRRH) [Pal-LCE-3B] |  |  |  |  |  |  | MBC90 ([4]; pH 5.5, 0.25% glucose): 0.15 µg/mL; MBC100 ([4]; pH 5.5, 0.25% glucose): 9.38 µg/mL; MBC90 ([4]; pH 7.3, 0.25% glucose): 2.35 µg/mL; MBC100 ([4]; pH 7.3, 0.25% glucose): 4.7 µg/mL |
| CCCCCCCCCCCCCCCC(=O)N[C@@H](CO)C(=O)N[C@@H](Cc1c[nH]cn1)C(=O)N[C@@H](Cc1c[nH]cn1)C(=O)N[C@@H](CCCNC(=N)N)C(=O)N[C@@H](Cc1c[nH]cn1)C(=O)N[C@@H](Cc1ccccc1)C(=O)N[C@@H](CCCNC(=N)N)C(=O)N[C@@H](CO)C(=O)N[C@@H](Cc1c[nH]cn1)C(=O)N[C@@H](CCC(N)=O)C(=O)N[C@@H](CS)C(=O)N[C@@H](CCCNC(=N)N)C(=O)N[C@@H](CCCNC(=N)N)C(=O)O [Pal-LCE3C55-67] (HELM PEPTIDE1{[CCCCCCCCCCCCCCCC(=O)[*:2]].S.H.H.R.H.F.R.S.H.Q.C.R.R}$$$$V2.0) | ≥32 | > 32 µg/mL | > 100 | 1 to 32 |  | ≥1 | MIC, C. albicans ATCC 90028 (C. albicans ATCC 928): ≥16 µg/mL |
| CCCCCCCCCCCCCCCC(=O)NCC(=O)N[C@@H](CCCCN)C(=O)N[C@@H](CCCCN)C(=O)NCC(=O)NCC(=O)N[C@@H](CCCCN)C(=O)NCC(=O)NCC(=O)N[C@@H](CCCCN)C(=O)NCC(=O)N[C@@H](CCCCN)C(=O)NCC(=O)N[C@@H](CCCCN)C(=O)O [Pal-K-GR13] (HELM PEPTIDE1{[CCCCCCCCCCCCCCCC(=O)[*:2]].G.K.K.G.G.K.G.G.K.G.K.G.K}$$$$V2.0) |  | > 32 µg/mL | > 300 |  | low hemolytic activity |  |  |
| CCCCCCCCCCCCCCCC(=O)NCC(=O)N[C@@H](CCCNC(=N)N)C(=O)N[C@@H](Cc1c[nH]cn1)C(=O)NCC(=O)N[C@@H](CO)C(=O)NCC(=O)N[C@@H](CC(C)C)C(=O)NCC(=O)N[C@@H](Cc1c[nH]cn1)C(=O)N[C@@H](CO)C(=O)N[C@@H](CO)C(=O)N[C@@H](CO)C(=O)N[C@@H](Cc1c[nH]cn1)C(=O)NCC(=O)N[C@@H](CCC(N)=O)C(=O)N[C@@H](Cc1c[nH]cn1)C(=O)NCC(=O)N[C@@H](CO)C(=O)NCC(=O)N[C@@H](CO)C(=O)NCC(=O)N[C@@H](CCCNC(=N)N)C(=O)O [Pal-HR 1-18] (HELM PEPTIDE1{[CCCCCCCCCCCCCCCC(=O)[*:2]].G.R.H.G.S.G.L.G.H.S.S.S.H.G.Q.H.G.S.G.S.G.R}$$$$V2.0) |  | > 32 µg/mL and > 13.7 µM | > 300 |  | low hemolytic activity |  | HC50 at 1 h (Hemolysis assay): > 130 µM; MIC, A. baumannii ATCC 19606 (A. baumannii ATCC 19606): ≥32 µg/mL |
